In the NIST ThermoML archive (doi:10.1016/j.tca.2012.06.011):

Experiment: xn = mol fraction of the nth substance listed
Conditions: 101 kPa, Liquid; for viscosity: Capillary tube (Ostwald / Ubbelohde) method; for mass density: Vibrating tube method

C1C[C@@H]2[C@H]3CC[C@H](C3)[C@@H]2C1 [exo-tetrahydrodicyclopentadiene] + CCN(CC)CC
Conditions | mass density, 298.15 K [kg/m3] | mass density, 303.15 K [kg/m3] | mass density, 308.15 K [kg/m3] | mass density, 313.15 K [kg/m3] | mass density, 323.15 K [kg/m3] | viscosity, 298.15 K [mPa·s] | viscosity, 303.15 K [mPa·s] | viscosity, 308.15 K [mPa·s] | viscosity, 313.15 K [mPa·s] | viscosity, 323.15 K [mPa·s]
x2 = 0 | 931.29 | 927.38 | 923.46 | 919.54 | 911.7 | 2.8 | 2.549 | 2.332 | 2.124 | 1.811
x2 = 0.1347 | 906.47 | 902.17 | 898.15 | 894.12 | 885.86 | 2.034 | 1.871 | 1.714 | 1.57 | 1.36
x2 = 0.2521 | 883.66 | 879.54 | 875.44 | 871.32 | 863.09 | 1.535 | 1.421 | 1.324 | 1.217 | 1.063
x2 = 0.365 | 861.16 | 856.98 | 852.8 | 848.59 | 840.22 | 1.188 | 1.109 | 1.035 | 0.955 | 0.842
x2 = 0.4709 | 839.56 | 835.31 | 831.04 | 826.75 | 818.22 | 0.961 | 0.893 | 0.829 | 0.77 | 0.69
x2 = 0.5711 | 818.66 | 814.33 | 809.98 | 805.62 | 796.93 | 0.779 | 0.738 | 0.691 | 0.649 | 0.578
x2 = 0.6683 | 798.2 | 793.7 | 789.27 | 784.85 | 775.97 | 0.653 | 0.618 | 0.583 | 0.547 | 0.492
x2 = 0.7585 | 778.5 | 773.97 | 769.46 | 764.95 | 755.83 | 0.55 | 0.524 | 0.503 | 0.463 | 0.431
x2 = 0.8414 | 759.95 | 755.41 | 750.85 | 746.25 | 737.14 | 0.476 | 0.455 | 0.433 | 0.406 | 0.373
x2 = 0.9136 | 743.67 | 739.07 | 734.45 | 729.79 | 720.56 | 0.419 | 0.399 | 0.38 | 0.368 | 0.327

CN1CCNCC1 [N-methylpiperazine] + C1C[C@@H]2[C@H]3CC[C@H](C3)[C@@H]2C1
Conditions | mass density, 298.15 K [kg/m3] | mass density, 303.15 K [kg/m3] | mass density, 308.15 K [kg/m3] | mass density, 313.15 K [kg/m3] | mass density, 323.15 K [kg/m3] | viscosity, 298.15 K [mPa·s] | viscosity, 303.15 K [mPa·s] | viscosity, 308.15 K [mPa·s] | viscosity, 313.15 K [mPa·s] | viscosity, 323.15 K [mPa·s]
x1 = 0.1337 | 925.63 | 921.65 | 917.65 | 913.66 | 905.68 | 2.432 | 2.214 | 2.021 | 1.844 | 1.574
x1 = 0.2543 | 920.97 | 916.91 | 912.83 | 908.76 | 900.62 | 2.247 | 2.051 | 1.868 | 1.694 | 1.452
x1 = 0.3678 | 916.92 | 912.79 | 908.63 | 904.48 | 896.19 | 2.125 | 1.925 | 1.752 | 1.583 | 1.351
x1 = 0.4768 | 913.25 | 909.05 | 904.83 | 900.62 | 892.2 | 2.016 | 1.822 | 1.655 | 1.492 | 1.281
x1 = 0.577 | 910.05 | 905.8 | 901.53 | 897.26 | 888.74 | 1.943 | 1.756 | 1.583 | 1.435 | 1.237
x1 = 0.672 | 907.32 | 903.04 | 898.72 | 894.4 | 885.79 | 1.921 | 1.708 | 1.545 | 1.399 | 1.195
x1 = 0.76 | 904.59 | 900.27 | 895.93 | 891.58 | 882.9 | 1.893 | 1.681 | 1.512 | 1.362 | 1.162
x1 = 0.8407 | 902.15 | 897.92 | 893.59 | 889.24 | 880.55 | 1.894 | 1.656 | 1.502 | 1.35 | 1.154
x1 = 0.9242 | 900.27 | 895.92 | 891.51 | 887.11 | 878.34 | 1.877 | 1.632 | 1.467 | 1.318 | 1.116
x1 = 1 | 899.28 | 894.9 | 890.5 | 886.07 | 877.28 | 1.854 | 1.583 | 1.409 | 1.258 | 1.064
